Test results reported in the NIST ThermoML archive (doi:10.1016/j.fluid.2006.01.030).
± gives the expanded uncertainty stated by the source.

Experiment: xn = mol fraction of the nth substance listed
Details: Liquid

CCCCCCC [heptane] + CCO
viscosity [mPa·s]
Details	x2 = 0	x2 = 0.125	x2 = 0.25	x2 = 0.375	x2 = 0.5	x2 = 0.625	x2 = 0.75	x2 = 0.875
293.15 K, 100 kPa, Capillary tube (Ostwald / Ubbelohde) method	0.41 ± 0.009	0.419 ± 0.009	0.45 ± 0.01	0.494 ± 0.01	0.556 ± 0.012	0.644 ± 0.014	0.757 ± 0.016	0.931 ± 0.02
293.15 K, 20000 kPa, Falling or rolling sphere viscometry	0.509 ± 0.021	0.518 ± 0.022	0.547 ± 0.023	0.597 ± 0.025	0.668 ± 0.028	0.76 ± 0.033	0.885 ± 0.038	1.052 ± 0.046
293.15 K, 40000 kPa, Falling or rolling sphere viscometry	0.604 ± 0.025	0.614 ± 0.026	0.648 ± 0.027	0.707 ± 0.03	0.787 ± 0.033	0.888 ± 0.038	1.023 ± 0.044	1.2 ± 0.052
293.15 K, 60000 kPa, Falling or rolling sphere viscometry	0.706 ± 0.03	0.718 ± 0.03	0.757 ± 0.032	0.824 ± 0.035	0.913 ± 0.039	1.022 ± 0.044	1.168 ± 0.05	1.354 ± 0.058
293.15 K, 80000 kPa, Falling or rolling sphere viscometry	0.817 ± 0.034	0.832 ± 0.035	0.875 ± 0.037	0.951 ± 0.04	1.047 ± 0.044	1.162 ± 0.05	1.316 ± 0.056	1.509 ± 0.065
293.15 K, 100000 kPa, Falling or rolling sphere viscometry	0.937 ± 0.039	0.953 ± 0.04	1.003 ± 0.042	1.087 ± 0.046	1.191 ± 0.051	1.312 ± 0.056	1.473 ± 0.063	1.674 ± 0.072
313.15 K, 100 kPa, Capillary tube (Ostwald / Ubbelohde) method	0.333 ± 0.007	0.336 ± 0.007	0.354 ± 0.008	0.383 ± 0.008	0.421 ± 0.009	0.475 ± 0.01	0.55 ± 0.012	0.66 ± 0.014
313.15 K, 20000 kPa, Falling or rolling sphere viscometry	0.408 ± 0.017	0.413 ± 0.017	0.429 ± 0.018	0.464 ± 0.02	0.508 ± 0.022	0.567 ± 0.024	0.65 ± 0.028	0.766 ± 0.033
313.15 K, 40000 kPa, Falling or rolling sphere viscometry	0.487 ± 0.02	0.495 ± 0.021	0.513 ± 0.022	0.553 ± 0.024	0.602 ± 0.026	0.666 ± 0.029	0.756 ± 0.033	0.877 ± 0.038
313.15 K, 60000 kPa, Falling or rolling sphere viscometry	0.57 ± 0.024	0.579 ± 0.024	0.599 ± 0.025	0.644 ± 0.027	0.699 ± 0.03	0.768 ± 0.033	0.864 ± 0.037	0.989 ± 0.043
313.15 K, 80000 kPa, Falling or rolling sphere viscometry	0.658 ± 0.028	0.666 ± 0.028	0.69 ± 0.029	0.739 ± 0.031	0.8 ± 0.034	0.874 ± 0.038	0.974 ± 0.042	1.102 ± 0.048
313.15 K, 100000 kPa, Falling or rolling sphere viscometry	0.751 ± 0.032	0.758 ± 0.032	0.786 ± 0.033	0.838 ± 0.036	0.906 ± 0.039	0.984 ± 0.042	1.088 ± 0.047	1.217 ± 0.053
333.15 K, 100 kPa, Capillary tube (Ostwald / Ubbelohde) method	0.276 ± 0.006	0.274 ± 0.006	0.282 ± 0.006	0.299 ± 0.006	0.325 ± 0.007	0.361 ± 0.008	0.409 ± 0.009	0.484 ± 0.01
333.15 K, 20000 kPa, Falling or rolling sphere viscometry	0.336 ± 0.014	0.332 ± 0.014	0.344 ± 0.014	0.364 ± 0.015	0.393 ± 0.017	0.435 ± 0.019	0.489 ± 0.021	0.565 ± 0.025
333.15 K, 40000 kPa, Falling or rolling sphere viscometry	0.402 ± 0.017	0.4 ± 0.017	0.414 ± 0.017	0.436 ± 0.018	0.469 ± 0.02	0.515 ± 0.022	0.571 ± 0.025	0.651 ± 0.028
333.15 K, 60000 kPa, Falling or rolling sphere viscometry	0.472 ± 0.02	0.471 ± 0.02	0.486 ± 0.02	0.511 ± 0.022	0.546 ± 0.023	0.595 ± 0.025	0.653 ± 0.028	0.734 ± 0.032
333.15 K, 80000 kPa, Falling or rolling sphere viscometry	0.546 ± 0.023	0.544 ± 0.023	0.56 ± 0.024	0.589 ± 0.025	0.623 ± 0.026	0.677 ± 0.029	0.735 ± 0.032	0.816 ± 0.035
333.15 K, 100000 kPa, Falling or rolling sphere viscometry	0.623 ± 0.026	0.621 ± 0.026	0.636 ± 0.027	0.67 ± 0.028	0.703 ± 0.03	0.761 ± 0.032	0.818 ± 0.035	0.898 ± 0.039
353.15 K, 100 kPa, Capillary tube (Ostwald / Ubbelohde) method	0.232 ± 0.005	–	–	–	–	–	–	–
353.15 K, 20000 kPa, Falling or rolling sphere viscometry	0.289 ± 0.012	0.282 ± 0.012	0.286 ± 0.012	0.298 ± 0.013	0.316 ± 0.013	0.341 ± 0.015	0.374 ± 0.016	0.423 ± 0.018
353.15 K, 40000 kPa, Falling or rolling sphere viscometry	0.346 ± 0.014	0.337 ± 0.014	0.343 ± 0.014	0.357 ± 0.015	0.376 ± 0.016	0.403 ± 0.017	0.437 ± 0.019	0.49 ± 0.021
353.15 K, 60000 kPa, Falling or rolling sphere viscometry	0.401 ± 0.017	0.394 ± 0.016	0.401 ± 0.017	0.412 ± 0.017	0.434 ± 0.018	0.464 ± 0.02	0.501 ± 0.022	0.556 ± 0.024
353.15 K, 80000 kPa, Falling or rolling sphere viscometry	0.458 ± 0.019	0.45 ± 0.019	0.458 ± 0.019	0.475 ± 0.02	0.499 ± 0.021	0.53 ± 0.023	0.565 ± 0.024	0.622 ± 0.027
353.15 K, 100000 kPa, Falling or rolling sphere viscometry	0.521 ± 0.022	0.513 ± 0.022	0.522 ± 0.022	0.539 ± 0.023	0.565 ± 0.024	0.599 ± 0.026	0.631 ± 0.027	0.69 ± 0.03
